Test results as given in patent US8609718B2, “Pharmaceutical composition used in treatment of hyperproliferative skin conditions and malignant melanomas comprising pachastrissamine as active ingredient” (Catholic University Industry Academy Cooperation Foundation, priority 2009, dated 2013).
Entries after “also recorded” stand apart in the source; their conditions may differ.

Legend:
HaCaT cell line [1] = assay: MTT cell viability analysis (cytotoxicity), HaCaT; format: cell-based, human; settings: 24 hours, FIG. 1
Experimental: (§1) Pachastrissamine's cytotoxicity on a HaCaT cell line and a malignant melanoma cell line was researched through MTT cell viability analysis.
(§2) First, each of a HaCaT cell line (German Cancer Research, obtained from prof. N. Fuseni, Germany), and two kinds of malignant melanoma cell lines, B16F10 (B16) and A375 were inoculated into a DMEM (Dulbecco's Modified Eagle's Medium) culture medium added with 10% FBS (Thermo Fisher Scientific Inc.), 100 unit/ml penicillin, and 100 μg/ml streptomycin, and then cultured in a CO2 incubator (Form a Scientific, Inc.) (37° C., 5%).
(§3) The cultured HaCaT, B16F10, and A375 cells were plated onto a 96-well plate at a concentration of 5×10^4 cells/well, and cultured in a CO2 incubator (37° C., 5%) for 24 hours. The cells in respective wells were treated with pachastrissamine and phytosphingosine at various concentrations of 0, 0.9, 1.8, 3.7, 7.5, 10 μg/ml, and cultured in a CO2 incubator (37° C., 5%) for 24 hours. After the culturing, in a state where the culture medium existed, each well was added with 5 mg/ml MTT reagent at a concentration of 20 μl/[…], and cultured in an incubator for 2 hours. After 2 hours, the culture medium was removed, and each well was added with 150 μl of DMSO (dimethyl sulfoxide). Then, a spectrophotometer was used to measure the absorbance at 540 nm, thereby analyzing the cell viability. Herein, the cell viability was represented as a relative value with respect to 100% of cell viability in a control group not treated with pachastrissamine and phytosphingosine.

[2] = tested on: malignant melanoma cell line A375; assay: MTT cell viability analysis (cytotoxicity), A375; format: cell-based; settings: 24 hours, FIG. 1
Experimental: as §1, §2, §3

HaCaT cell line [3] = assay: Cell counting by hemocytometer, trypan blue exclusion, HaCaT; format: cell-based, human
Experimental: (§4) A HaCaT cell line was cultured in the same manner as described in Example 1. The cultured HaCaT cell line was plated onto a 60 mm plate at a concentration of 5×10^4 cells/well, and cultured in a CO2 incubator (37° C., 5%) for 24 hours. The cultured cells in respective plates were treated with pachastrissamine at a concentration of 10 μg/ml, and cultured in a CO2 incubator (37° C., 5%) for 24, 36, and 48 hours, respectively. After the culturing, the cells were washed with PBS, treated with trypsin-EDTA, and completely detached from the plate. Then, a hemocytometer was used to count the cells through trypan blue exclusion.
HaCaT, B16F10 and A375 cell lines were cultured in the same manner as described in Example 1. The cultured HaCaT cell line was plated onto a 60 mm plate at a concentration of 5×10^4 cells/well, and cultured in a CO2 incubator (37° C., 5%) for 24 hours. The cultured respective cells were divided into 4 groups. One group was added with only pachastrissamine (PA) at a concentration of 10 μg/ml; another group was added with lithium chloride (apoptosis inhibiting material) (at a final concentration of 300 nM) as well as pachastrissamine at a concentration of 10 μg/ml (PA+Li); and a third group was added with only lithium chloride (Li). The last group was a negative control group (Con) and was added with nothing. These groups were cultured in a CO2 incubator (37° C., 5%) for 24 hours, and then the number of cells were measured in the same manner as described in Example 2-2.

B16F10 cell line = assay: Cell counting by hemocytometer, trypan blue exclusion, B16F10; format: cell-based; settings: 24 hours
Experimental: as §4
HaCaT, B16F10 and A375 cell lines were cultured in the same manner as described in Example 1. The cultured HaCaT cell line was plated onto a 60 mm plate at a concentration of 5×10^4 cells/well, and cultured in a CO2 incubator (37° C., 5%) for 24 hours. The cultured respective cells were divided into 4 groups. […] These groups were cultured in a CO2 incubator (37° C., 5%) for 24 hours, and then the number of cells were measured in the same manner as described in Example 2-2.

ERK = assay: Western blotting of ERK activity (pERK) in HaCaT; format: cell-based, human; settings: pachastrissamine 10 μg/ml, U0126 20 nM, 30 minutes, FIG. 3C
Experimental: A HaCaT cell line was cultured in the same manner as described in Example 1. […] The last group was a negative control group (−) and was added with nothing.

MEK = assay: Western blotting of MEK activity (caMEK or N-Ras/H-Ras over-expression) in HaCaT; format: cell-based, human; settings: HaCaT with caMEK or N-Ras/H-Ras over-expression; FIGS. 3E, 3F
Experimental: In the same manner, MEK(caMEK) continuously activated in the HaCaT cell line was over-expressed so as to activate ERK in a lower signaling pathway of MEK. The HaCaT cell line whose ERK was activated by MEK was treated with pachastrissamine and U0126 and PD98059 (ERK inhibitors). Then, western blotting was carried out using anti-pMEK, anti-MEK, anti-pEKR, anti-EKR, and anti-actin antibodies so as to carry out comparative analysis (see FIG. 3E).
Further, in the same manner, two DNAs of N-Ras and H-Ras, in a previous step of MEK/ERK signal transduction, were over-expressed through transfection while a HaCaT cell line was cultured. Then, after treatment with pachastrissamine and phytosphingosine, western blotting was carried out using anti-pMEK, and anti-MEK antibodies so as to carry out comparative analysis of MEK activity (see FIG. 3F).

FoxO3a [4] = assay: Western blotting of FoxO3a protein expression in HaCaT; format: cell-based, human
Experimental: A HaCaT cell line was cultured in the same manner as described in Example 1. […] Then, western blotting was carried out by using FoxO3a antibody as a primary antibody.
Then, western blotting was carried out by using FoxO3a antibody as a primary antibody so as to carry out comparative analysis on the level of protein expression.

p-FoxO3a (Ser 253) = assay: Western blotting of p-FoxO3a (Ser 253); format: cell-based; settings: HaCaT, A375, B16F10, 10 μg/ml, FIGS. 4B, 4C
Experimental: In the same manner as described in Example 4-1, a HaCaT cell line and malignant melanoma cell lines (A375 and B16F10) were treated with pachastrissamine and phytosphingosine at a concentration of 10 μg/ml for 30 minutes and 60 minutes, respectively. Then, western blotting was carried out using p-FoxO3a (Ser 253) antibody.

FoxO3a [5] = assay: FoxO3a immunoprecipitation and ubiquitin western blotting in HEK293T; format: cell-based; settings: pachastrissamine and EGF
Experimental: Then, immunoprecipitation was carried out using FoxO3a antibody. The sample obtained from immunoprecipitation was subjected to western blotting by using ubiquitin antibody so as to carry out comparative analysis.

[6] = 0, 0.9, 1.8, 3.7, 7.5, 10 μg/ml

## CCCCCCCCCCCCCC[C@@H]1OC[C@H](N)[C@@H]1O [pachastrissamine]
HaCaT cell line [1]; [6]
  cell viability (number of surviving cells) with increasing concentration: the number of surviving cells was reduced
HaCaT cell line [1]
  cytotoxicity compared with phytosphingosine: lower cytotoxicity than phytosphingosine
[2]; [6]
  cell viability (number of surviving cells) with increasing concentration: the number of surviving cells was reduced
[2]
  cytotoxicity compared with phytosphingosine: lower cytotoxicity than phytosphingosine
HaCaT cell line [3]; 10 μg/ml, 24, 36 and 48 hours, control group increased, FIG. 2b
  number of cells over culturing time (cell proliferation): the number of cells decreased
HaCaT cell line [3]; 10 μg/ml, 24 hours, FIGS. 2C, 2D
  number of cells compared to no treatment: the number of cells was decreased
HaCaT cell line [3]; pachastrissamine 10 μg/ml + lithium chloride 300 nM (PA+Li), 24 hours
  number of cells with lithium chloride as well as pachastrissamine, compared to only pachastrissamine: the number of cells was higher
B16F10 cell line; 10 μg/ml, FIGS. 2C, 2D
  number of cells compared to no treatment: the number of cells was decreased
B16F10 cell line; pachastrissamine 10 μg/ml + lithium chloride 300 nM (PA+Li)
  number of cells with lithium chloride as well as pachastrissamine, compared to only pachastrissamine: the number of cells was higher
ERK
  ERK activation (phosphorylation of ERK): almost completely inhibited the phosphorylation of ERK; also recorded: reduction of ERK activation
MEK
  MEK activity (upper signal of ERK): inhibition effect on MEK
FoxO3a [4]; 5 and 10 μg/ml, 24 hours, FIG. 4A
  protein expression level of FoxO3a compared to control group: increased
FoxO3a [4]; pachastrissamine together with PD98059, versus each single material, FIG. 4E
  extent of protein expression of FoxO3a, pachastrissamine and PD98059 together: it was not found that the extent of protein expression was increased
FoxO3a [4]; pachastrissamine together with U0126, versus each single material, FIG. 4E
  extent of protein expression of FoxO3a, pachastrissamine and U0126 together: significantly increased compared to other samples treated with each single material
FoxO3a [4]; treated as in Example 3-2, compared to negative control, FIG. 4E
  level of protein expression of FoxO3a, single material: the amount of FoxO3a protein was increased
p-FoxO3a (Ser 253); 30 minutes
  amount of expressed p-FoxO3a after 30 minutes: reduced
p-FoxO3a (Ser 253); 60 minutes
  expression of p-FoxO3a after 60 minutes: increased an expression of p-FoxO3a
FoxO3a [5]
  ubiquitination degree of FoxO3a increased by EGF: decreased
